Values joined by “and” are separate entries in the source; they are usually repeats but may differ in a detail not shown here. Identical values can stand only once.
Target: Sodium-dependent phosphate transport protein 2A (Homo sapiens) (UniProt Q06495)
Assay: PubChem AID 1794813
Settings: HEK293 JumpIn SLC34A1, FLIPR membrane potential dye

Sodium-dependent phosphate transport protein 2A (Homo sapiens), sequence (Q06495 whole entry, looked up): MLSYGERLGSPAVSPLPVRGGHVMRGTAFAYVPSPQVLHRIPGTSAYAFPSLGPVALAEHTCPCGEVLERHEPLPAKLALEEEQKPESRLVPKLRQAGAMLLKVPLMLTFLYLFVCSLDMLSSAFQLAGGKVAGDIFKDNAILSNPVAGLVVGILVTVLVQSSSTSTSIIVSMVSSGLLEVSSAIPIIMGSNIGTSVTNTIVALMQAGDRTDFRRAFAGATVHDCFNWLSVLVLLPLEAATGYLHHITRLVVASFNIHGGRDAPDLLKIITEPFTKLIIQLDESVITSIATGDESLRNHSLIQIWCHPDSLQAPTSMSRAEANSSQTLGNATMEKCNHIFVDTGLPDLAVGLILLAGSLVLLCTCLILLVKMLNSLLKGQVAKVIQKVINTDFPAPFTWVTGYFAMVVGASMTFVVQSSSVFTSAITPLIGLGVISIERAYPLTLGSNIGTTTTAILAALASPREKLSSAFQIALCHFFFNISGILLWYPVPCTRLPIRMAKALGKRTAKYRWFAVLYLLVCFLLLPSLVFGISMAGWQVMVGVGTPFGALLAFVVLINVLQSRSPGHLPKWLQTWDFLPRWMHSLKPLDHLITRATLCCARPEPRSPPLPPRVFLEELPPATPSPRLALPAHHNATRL

O=P(O)(O)O
EC50 (substrate-evoked depolarization, activation): 32 µM and 39 µM
